Assay results reported in PMC7972841, “In Vivo Molecular Imaging of the Efficacy of Aminopeptidase N (APN/CD13) Receptor Inhibitor Treatment on Experimental Tumors Using ^68Ga-NODAGA-c(NGR) Peptide” (BioMed Research International, 2021).
Where two headings read alike, the source gives them in different places. Where a SMILES comes first, the peptide text is derived from it. Bridges are numbered along the chain shown (N, C = ends). The star is where a group is joined. NODAGA = O=C(O)CN1CCN(CC(=O)O)CCN(C(CCC(=O)*)C(=O)O)CC1

Columns and labels:
HT1080 tumors = test: Tumor volume, HT1080 tumors; assay type: in vivo, CB17 SCID mice; settings: caliper, n = 10/group
Protocol: (§2) For experimental tumor induction, mice were anaesthetized with a dedicated small animal anaesthesia device (Tec3 Isoflurane Vaporizer, Eickemeyer Veterinary Equipment, UK) using 3% isoflurane (Forane, AbbVie), 0.4 L/min O2, and 1.4 L/min N2O. After depilation of the left shoulder area of the animals, CB17 SCID mice (n = 30) were injected subcutaneously with 1.5 × 10^6 HT1080 (human fibrosarcoma) cells in 150 μL (1/3 part of Matrigel and 2/3 part of saline), and C57BL/6 mice (n = 30) were injected subcutaneously with 3 × 10^6 B16-F10 cells in 150 μL of sterile saline. Tumor growth was assessed by caliper measurements by the same experienced researcher. The tumor size was calculated using the following formula: (largest diameter × smallest diameter^2)/2.
(§3) For the actinonin-treated groups, 5 mg/kg actinonin (dissolved in 10 μL abs. EtOH and diluted with 140 μL HumAqua (aqua destillata, TEVA, Debrecen, Hungary)) was administrated daily by intraperitoneal injection for 7 days. The control-untreated group was injected intraperitoneally with 150 μL saline for 7 days.

B16-F10 tumors = test: Tumor volume, B16-F10 tumors; assay type: in vivo, C57BL/6 mice; settings: caliper, n = 10/group
Protocol: as §2, §3

APN/CD13 [1] = test: Western blot analysis of APN/CD13 in HT1080 tumors; assay type: in vivo, human; settings: HT1080 tumors after treatment, densitometry
Protocol: For western blot analysis, frozen tissue samples were pulverized under liquid nitrogen, and tissue homogenization was performed with TissueLyser II (QIAGEN). Tumors were lysed in a RIPA buffer. After protein isolation, protein samples (10-40 μg) were separated on 10% SDS polyacrylamide gels and electrotransferred onto nitrocellulose membranes. After blocking, the membranes were incubated with primary anti-human and anti-mouse CD13 (from Santa-Cruz Biotechnology, Inc., USA) antibody at the dilution of 1 : 1000 overnight at 4°C. After washing, the membranes were probed with IgG HRP conjugated secondary antibody (Cell Signaling Technology, Inc., Beverly, MA, 1 : 2000). Beta-actin was used as a loading control. Bands were visualized by enhanced chemiluminescence reaction. Densitometry was performed using the ImageJ software. For the detailed protocol, please see Supplementary Material western blot analysis.
For western blot analysis frozen tissue samples were pulverized under liquid nitrogen and tissue homogenization was performed with TissueLyser II (QIAGEN). […] Upon densitometry, negative control samples (mouse large intestine) were considered to be 1 and values are expressed as fold change relative to controls to reduce unwanted variations. […]

APN/CD13 [2] = test: Western blot analysis of APN/CD13 in B16-F10 tumors; assay type: in vivo, mouse; settings: B16-F10 melanoma after treatment, densitometry
Protocol: For western blot analysis frozen tissue samples were pulverized under liquid nitrogen and tissue homogenization was performed with TissueLyser II (QIAGEN). Cells were lysed in RIPA buffer (50 mM Tris, 150 mM NaCl, 0.1 % SDS, 1 % TritonX 100, 0.5 % sodium deoxycolate, 1 mM EDTA, 1 mM Na3VO4, 1 mM NaF, 1 mM PMSF, protease inhibitor cocktail). […] Upon densitometry, negative control samples (mouse large intestine) were considered to be 1 and values are expressed as fold change relative to controls to reduce unwanted variations. […]

HT1080 tumors (APN/CD13) = settings: for T/M SUVmean ratio of treated tumor: 90 min after iv tracer; for ^68Ga-NODAGA-c(NGR) SUVmean of treated tumor: PET 90 min after iv tracer, mean ± SD
Protocol: (§4) For experimental tumor induction, mice were anaesthetized with a dedicated small animal anaesthesia device (Tec3 Isoflurane Vaporizer, Eickemeyer Veterinary Equipment, UK) using 3% isoflurane (Forane, AbbVie), 0.4 L/min O2, and 1.4 L/min N2O. After depilation of the left shoulder area of the animals, CB17 SCID mice (n = 30) were injected subcutaneously with 1.5 × 10^6 HT1080 (human fibrosarcoma) cells in 150 μL (1/3 part of Matrigel and 2/3 part of saline), and C57BL/6 mice (n = 30) were injected subcutaneously with 3 × 10^6 B16-F10 cells in 150 μL of sterile saline. […] The tumor size was calculated using the following formula: (largest diameter × smallest diameter^2)/2.
as §3
(§5) Five and ten days after tumor cell implantation, control-untreated tumor-bearing and treated tumor-bearing animals were anaesthetized with 3% isoflurane and were injected with 5.5 ± 0.2 MBq APN/CD13-specific ^68Ga-NODAGA-c(NGR) in 150 μL saline via the lateral tail vein. After 90 min incubation time, 20 min static PET scans were performed from the tumorous area using the preclinical miniPET device (University of Debrecen, Faculty of Medicine, Department of Medical Imaging, Division of Nuclear Medicine and Translational Imaging). After 3D OSEM-LOR image reconstruction, volumes of interest (VOIs) were manually drawn around the examined regions using the BrainCAD image analysis software and quantitative standardized uptake values (SUVs) were calculated as follows: SUV = [VOI activity (Bq/mL)]/[injected activity (Bq)/animal weight (g)], assuming a density of 1 g/mL. Tumor-to-muscle (T/M) ratios were calculated from the activity of the tumor and background (muscle).

[3] = system: B16-F10 tumors (APN/CD13); settings: for T/M ratio of treated tumor: 90 min after iv tracer; for ^68Ga-NODAGA-c(NGR) SUVmean of treated tumor: PET 90 min after iv tracer, mean ± SD
Protocol: as §4, §3, §5

HT1080 tumor = test: Ex vivo biodistribution, HT1080 tumor-bearing mice; settings: HT1080 tumor-bearing mice treated ip daily (bestatin 15 mg/kg or actinonin 5 mg/kg), mean±SD, n=10
Protocol: as §3
(§6) After in vivo PET imaging, control-untreated tumor-bearing and treated tumor-bearing animals were euthanized with 5% Forane and dissected, and blood, urine, and samples were taken from the liver, spleen, kidney, small intestine, large intestine, stomach, heart, lungs, tumors, muscles, and fat. The weight and radioactivity of the selected organs and tissues were measured with a calibrated gamma counter (Hewlett Packard Cobra II Autogama Gamma Counter). The uptake of the APN/CD13-specific ^68Ga-NODAGA-c(NGR) radiotracer was expressed as %ID/g tissue.

B16-F10 tumor = test: Ex vivo biodistribution, B16-F10 tumor-bearing mice; settings: B16-F10 tumor-bearing mice treated ip daily (bestatin 15 mg/kg or actinonin 5 mg/kg), mean±SD, n=10
Protocol: as §3, §6

in vitro = in vitro ADME; settings: mouse, serum
Protocol: 5 mg (8.6 μmol) c[KNGRE]-NH2 peptide was dissolved in 0.9 mL 0.1 mol/dm^3 Na2CO3 buffer (pH = 8.42), then 7.5 mg (10.2 μmol) NODAGA-NHS ester dissolved in 0.1 mL DMSO was added to the peptide. The reaction was mixed for 24 hours at room temperature. NODAGA-c(NGR) was purified with semipreparative HPLC (KNAUER) and freeze-dried. For the radiolabeling procedure, the in vitro serum stability, and the determination of logp value, the same protocol was used as it was described earlier by our research group.
For the determination of the enzymatic stability, a stock solution was prepared from 100 μL of ^68Ga-NODAGA-c(NGR) solution and 1 mL PBS. 20 μL from this solution was introduced to 480 μL mouse serum (Sigma-Aldrich, St. Louis, Missouri, USA), and the mixture was tempered at 37°C. After 0, 30, 60, 90, and 120 min incubation time, 50 μL sample was taken and 50 μL abs. EtOH was added to the aliquots. Samples were centrifuged (20,000 rpm, 5 min), the supernatant was removed and diluted with the eluent of HPLC, then the analytical measurement was prepared.

[4] = parameters: species or system mice; settings: mouse, in vivo
Protocol: as §6

in vivo [5] = settings: CB17 SCID, mouse, iv, 5.5 MBq, total radioactivity, SUVmean of tumor
Protocol: as §4, §3, §5

in vivo [6] = settings: C57BL/6, mouse, iv, 5.5 MBq, total radioactivity, SUVmean of tumor
Protocol: as §4, §3, §5

in vivo [7] = settings: CB17 SCID, mouse, iv, 5.5 MBq, total radioactivity
Protocol: as §3, §6

in vivo [8] = settings: C57BL/6, mouse, iv, 5.5 MBq, total radioactivity, tracer uptake
Protocol: as §3, §6

AKR tumor = settings: 5 mg/kg, syngeneic AKR tumor-bearing mice; cited from earlier work
From the text: (§1) In our further in vivo experiments, the efficacy of the actinonin and bestatin treatments was investigated on experimental tumors. The antitumor effect of actinonin was investigated earlier by Xu and coworkers on human (HL60, NB4) and murine (AKR) leukemia and lymphoma (RAJI, DAUDI) cell lines. […] In in vivo studies, syng ...

[9] = system: human (HL60, NB4) and murine (AKR) leukemia cell lines; settings: in vitro; cited from earlier work
From the text: as §1

human lymphoma = settings: subcutaneous human lymphoma-bearing nude mice; cited from earlier work
From the text: as §1

[10] = system: lymphoma (RAJI, DAUDI) cell lines; settings: in vitro; cited from earlier work
From the text: as §1

[11] = HT1080, day 3 (start of treatment)
[12] = HT1080, day 5, bestatin 15 mg/kg or actinonin 5 mg/kg ip daily
[13] = HT1080, day 10, bestatin 15 mg/kg or actinonin 5 mg/kg ip daily 7 days
[14] = B16-F10, day 3 (start of treatment)
[15] = B16-F10, day 5, bestatin 15 mg/kg or actinonin 5 mg/kg ip daily
[16] = B16-F10, day 10, bestatin 15 mg/kg or actinonin 5 mg/kg ip daily 7 days
[17] = HT1080, day 5, ip daily from day 3 (bestatin 15 mg/kg, actinonin 5 mg/kg)
[18] = HT1080, day 10, ip daily 7 days (bestatin 15 mg/kg, actinonin 5 mg/kg)
[19] = B16-F10, day 5, ip daily from day 3 (bestatin 15 mg/kg, actinonin 5 mg/kg)
[20] = B16-F10, day 10, ip daily 7 days (bestatin 15 mg/kg, actinonin 5 mg/kg)

Work on `CC(C)C[C@H](NC(=O)[C@@H](O)[C@H](N)Cc1ccccc1)C(=O)O` [bestatin] yielded a tumor volume (HT1080 tumors; [11]) of 52.3 ± 2.8 mm^3, a tumor volume (HT1080 tumors; [12]) of 17 ± 1.2 mm^3 and a tumor volume (HT1080 tumors; [13]) of 7.0 ± 2.0 mm^3. The tumor volume (B16-F10 tumors; [14]) was 52.1 ± 2.6 mm^3, the tumor volume (B16-F10 tumors; [15]) was 65.0 ± 5.2 mm^3 and the tumor volume (B16-F10 tumors; [16]) was 62.0 ± 2.8 mm^3. The “amount of APN/CD13 protein in tumor vs control-untreated” value (APN/CD13 [1]) was “did not significantly reduce”, the “expression of APN/CD13 in tumor vs untreated” value (APN/CD13 [2]) was “significantly lower” and the “T/M SUVmean ratio of treated tumor” value (HT1080 tumors (APN/CD13); [12]) was 0.57 ± 0.2. For the same compound, the “^68Ga-NODAGA-c(NGR) SUVmean of treated tumor” value (shortened to “^68Ga-NODAGA-c(NGR) SUVmean”) (HT1080 tumors (APN/CD13); [17]) was 0.02 ± 0.01, the “T/M SUVmean ratio of treated tumor” value (HT1080 tumors (APN/CD13); [13]) was 0.61 ± 0.20 and the “^68Ga-NODAGA-c(NGR) SUVmean” value (HT1080 tumors (APN/CD13); [18]) was 0.01 ± 0.01. For the same compound, the “T/M ratio of treated tumor” value [3, 15] was 1.11 ± 0.01, the “^68Ga-NODAGA-c(NGR) SUVmean” value [3, 19] was 0.03 ± 0.01 and the “T/M ratio of treated tumor” value [3, 16] was 1.63 ± 0.09. For the same compound, the “^68Ga-NODAGA-c(NGR) SUVmean” value [3, 20] was 0.04 ± 0.001, the “T/M ID%/g, treated animals” value (HT1080 tumor) was 1.45±0.15 and the “T/M ID%/g, treated animals” value (B16-F10 tumor) was 2.40±0.92.
In the case of `N=C(N)NCCC[C@@H]1NC(=O)CNC(=O)[C@H](CC(N)=O)NC(=O)[C@H](CCCCNC(=O)CCC(C(=O)O)N2CCN(CC(=O)O)CCN(CC(=O)O)CC2)NC(=O)CC[C@@H](C(N)=O)NC1=O` (some centres unmarked) [^68Ga-NODAGA-c(NGR), metal not drawn] (K(NODAGA)NGRE-NH2; lactam N-5 (inferred)), the remaining at 2 h (in vitro) is reported as > 99%, the “accumulation in the kidneys” value [4] is reported as 1.3-1.6 ID%/g and the “uptake in the liver” value [4] is reported as 0.08-0.28 ID%/g. The SUVmean of tumor (HT1080 tumors (APN/CD13); CB17 SCID, mouse, in vivo, iv, 5.5 MBq, 1.5 h) was 0.10 ± 0.05, the SUVmean of tumor ([3]; C57BL/6, mouse, in vivo, iv, 5.5 MBq, 1.5 h) was 0.36 ± 0.05 and the SUV at 1.5 h (in vivo [5]) was 0.07 ± 0.03 SUV. The SUV at 1.5 h (in vivo [6]) was 0.19 ± 0.03 SUV, the tissue uptake at 1.5 h (in vivo [7]; T/M ID%/g (%ID/g tumor/%ID/g muscle)) was 5.3 ± 0.56 %ID/g and the tissue uptake at 1.5 h (in vivo [7]; tracer uptake, blood) was 0.04 ± 0.01 %ID/g. It also gave a tissue uptake at 1.5 h (in vivo [7]; tracer uptake, fat) of 0.02 ± 0.01 %ID/g, a tissue uptake at 1.5 h (in vivo [7]; tracer uptake, heart) of 0.03 ± 0.01 %ID/g and a tissue uptake at 1.5 h (in vivo [7]; tracer uptake, kidney) of 1.35 ± 0.45 %ID/g. It also gave a tissue uptake at 1.5 h (in vivo [7]; tracer uptake, large intestine) of 0.06 ± 0.01 %ID/g, a tissue uptake at 1.5 h (in vivo [7]; tracer uptake, liver) of 0.2 ± 0.01 %ID/g and a tissue uptake at 1.5 h (in vivo [7]; tracer uptake, lung) of 0.1 ± 0.02 %ID/g. For the same compound, the tissue uptake at 1.5 h (in vivo [7]; tracer uptake, muscle) was 0.01 %ID/g, the tissue uptake at 1.5 h (in vivo [7]; tracer uptake, small intestine) was 0.04 %ID/g and the tissue uptake at 1.5 h (in vivo [7]; tracer uptake, spleen) was 0.11 ± 0.02 %ID/g. For the same compound, the tissue uptake at 1.5 h (in vivo [7]; tracer uptake, stomach) was 0.04 ± 0.01 %ID/g, the tissue uptake at 1.5 h (in vivo [7]; tracer uptake, tumor) was 0.08 ± 0.04 %ID/g and the tissue uptake at 1.5 h (in vivo [8]; blood) was 0.09 ± 0.03 %ID/g. It also gave a tissue uptake at 1.5 h (in vivo [8]; fat) of 0.01 %ID/g, a tissue uptake at 1.5 h (in vivo [8]; heart) of 0.04 ± 0.01 %ID/g and a tissue uptake at 1.5 h (in vivo [8]; kidney) of 1.38 ± 0.13 %ID/g. For the same compound, the tissue uptake at 1.5 h (in vivo [8]; large intestine) was 0.06 ± 0.02 %ID/g, the tissue uptake at 1.5 h (in vivo [8]; liver) was 0.08 ± 0.02 %ID/g and the tissue uptake at 1.5 h (in vivo [8]; lung) was 0.1 ± 0.01 %ID/g. The tissue uptake at 1.5 h (in vivo [8]; muscle) was 0.02 %ID/g, the tissue uptake at 1.5 h (in vivo [8]; small intestine) was 0.07 ± 0.01 %ID/g and the tissue uptake at 1.5 h (in vivo [8]; spleen) was 0.05 ± 0.01 %ID/g. The tissue uptake at 1.5 h (in vivo [8]; stomach) was 0.06 ± 0.01 %ID/g and the tissue uptake at 1.5 h (in vivo [8]; tumor) was 0.27 ± 0.05 %ID/g.
`CCCCC[C@H](CC(=O)NO)C(=O)N[C@H](C(=O)N1CCC[C@H]1CO)C(C)C` [actinonin] gave a tumor volume (HT1080 tumors; [11]) of 49.1 ± 2.0 mm^3, a tumor volume (HT1080 tumors; [12]) of 68.08 ± 2.5 mm^3 and a tumor volume (HT1080 tumors; [13]) of 136.0 ± 8.5 mm^3. It also gave a tumor volume (B16-F10 tumors; [14]) of 49.0 ± 2.7 mm^3, a tumor volume (B16-F10 tumors; [15]) of 59 ± 4.9 mm^3 and a tumor volume (B16-F10 tumors; [16]) of 56.1 ± 2.1 mm^3. For the same compound, the “expression of APN/CD13 in tumor vs untreated” value (APN/CD13 [2]) was “significantly lower”, the “T/M SUVmean ratio of treated tumor” value (HT1080 tumors (APN/CD13); [12]) was 2.25 ± 1.0 and the “^68Ga-NODAGA-c(NGR) SUVmean” value (HT1080 tumors (APN/CD13); [17]) was 0.08 ± 0.04. For the same compound, the “T/M SUVmean ratio of treated tumor” value (HT1080 tumors (APN/CD13); [13]) was 15.57 ± 4.0, the “^68Ga-NODAGA-c(NGR) SUVmean” value (HT1080 tumors (APN/CD13); [18]) was 0.11 ± 0.05 and the “T/M ratio of treated tumor” value [3, 15] was 0.75 ± 0.15. The “^68Ga-NODAGA-c(NGR) SUVmean” value [3, 19] was 0.02 ± 0.001, the “T/M ratio of treated tumor” value [3, 16] was 0.74 ± 0.05 and the “^68Ga-NODAGA-c(NGR) SUVmean” value [3, 20] was 0.02 ± 0.001. For the same compound, the antitumor effect (AKR tumor) was “full antitumor effect”, the “tumor growth of APN/CD13-positive leukemia” value [9] was “blocked the tumor growth” and the antitumor effect (human lymphoma) was “not seen”. For the same compound, the “growth of APN/CD13-negative lymphomas” value [10] was “arrested the growth”, the “T/M ID%/g, treated animals” value (HT1080 tumor) was 15.27±5.52 and the “T/M ID%/g, treated animals” value (B16-F10 tumor) was 1.71±1.45.
